The results in this text go back to PubChem BioAssay (NCI).

Some test systems named below: HCT-15 colon; HOP-18 NSCLC; IGROV1 ovarian; SK-MEL-5 melanoma; UACC-62 melanoma; A549 NSCLC; HL-60(TB) leukemia; HOP-92 NSCLC; U251 CNS; SN12C renal; HCC-2998 colon; UACC-257 melanoma; CCRF-CEM leukemia; MOLT-4 leukemia; SF-268 CNS; EKVX NSCLC; CAKI-1 renal; PC-3 prostate; NCI/ADR-RES ovarian; MDA-MB-231 breast.
Holding throughout (assay): NCI tumour cell line growth inhibition, 48 h

Molecules are shown by their SMILES.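 Growth conditions: 96-well plates. Treatment: test compound, 48 hours, 5 concentrations. Analysis: linear interpolation between bracketing concentrations; unreached endpoints set to highest concentration. TGI marks complete inhibition of growth.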

On to `COc1cc(-c2cc(=O)c3c(O)c(OC)c(OC)c(OC)c3o2)ccc1O`, for which the TGI with HCT-15 colon was 43.1 µM; with HOP-18 NSCLC, more than 100 µM; in the assay on IGROV1 ovarian, 37.2 µM; with SK-MEL-5 melanoma it was 47.8 µM; with UACC-62 melanoma it was 34.4 µM; with A549 NSCLC, 90.7 µM. Moreover, the TGI was 61.6 µM in the assay on HL-60(TB) leukemia; 40.1 µM with HOP-92 NSCLC; more than 100 µM in the assay with U251 CNS; 79 µM with SN12C renal; more than 100 µM in the assay with HCC-2998 colon; more than 100 µM in the assay with UACC-257 melanoma. Also, the TGI with CCRF-CEM leukemia was more than 100 µM; with MOLT-4 leukemia, 93.5 µM; in the assay on SF-268 CNS it was more than 100 µM; in the assay with EKVX NSCLC it was more than 100 µM.
Consider `CCOC(=O)c1cc2c(nc1N)-c1ncccc1CC2`, for which the TGI in the assay on CAKI-1 renal, in the assay with HCT-15 colon, with HOP-18 NSCLC, in the assay on IGROV1 ovarian, in the assay with SK-MEL-5 melanoma and with UACC-62 melanoma was more than 100 µM each time. The TGI with A549 NSCLC, in the assay with HL-60(TB) leukemia, in the assay with HOP-92 NSCLC, in the assay with U251 CNS, in the assay with SN12C renal and in the assay on HCC-2998 colon was more than 100 µM each time. Besides, the TGI in the assay on UACC-257 melanoma, in the assay on CCRF-CEM leukemia, in the assay on MOLT-4 leukemia, in the assay on SF-268 CNS and with EKVX NSCLC was more than 100 µM in each case.
Turning to `CC(Oc1ccc(OCC2CCCCC2)cc1)C(N)=O` (centres undefined), the TGI with HCT-15 colon, with HOP-18 NSCLC, in the assay on SK-MEL-5 melanoma, in the assay with UACC-62 melanoma, in the assay with A549 NSCLC and with HL-60(TB) leukemia was more than 100 µM throughout. The TGI with U251 CNS, with SN12C renal, in the assay on UACC-257 melanoma, in the assay with CCRF-CEM leukemia, in the assay on MOLT-4 leukemia and in the assay with SF-268 CNS was more than 100 µM throughout.
On to `CC(O)C(N=Cc1nc(-c2ccccc2)oc1O)C(=O)O` (centres undefined), for which the TGI with CAKI-1 renal, in the assay with HOP-18 NSCLC, in the assay with IGROV1 ovarian, in the assay on SK-MEL-5 melanoma, in the assay on UACC-62 melanoma and with A549 NSCLC was more than 100 µM in each case. The TGI with HOP-92 NSCLC, in the assay with U251 CNS, in the assay with HCC-2998 colon, with UACC-257 melanoma, with CCRF-CEM leukemia and in the assay with SF-268 CNS was more than 100 µM each time. The same molecule came in with a TGI with EKVX NSCLC of more than 100 µM.
Take `O=C1CCCC/C1=C1\C(=O)Nc2cc(F)ccc21`: the TGI in the assay on CAKI-1 renal, in the assay on HCT-15 colon, with HOP-18 NSCLC, with IGROV1 ovarian, with SK-MEL-5 melanoma and in the assay with UACC-62 melanoma was more than 100 µM each time. Moreover, the TGI with A549 NSCLC, in the assay on HL-60(TB) leukemia, in the assay with HOP-92 NSCLC, in the assay on U251 CNS, with SN12C renal and with HCC-2998 colon was more than 100 µM in each case. For the same molecule, the TGI in the assay with UACC-257 melanoma, in the assay on CCRF-CEM leukemia, with MOLT-4 leukemia, in the assay with SF-268 CNS and in the assay on EKVX NSCLC was more than 100 µM throughout.
For `Cc1c(-c2nnc(-c3ccc(Cl)cc3)o2)c(=O)n(-c2ccccc2)n1C`, the TGI in the assay on HCT-15 colon, with HOP-18 NSCLC, in the assay with IGROV1 ovarian, with UACC-62 melanoma, in the assay with A549 NSCLC and in the assay with HL-60(TB) leukemia was more than 100 µM each time. In addition, the TGI in the assay with HOP-92 NSCLC, with U251 CNS, in the assay on SN12C renal, with HCC-2998 colon, in the assay with UACC-257 melanoma and in the assay on CCRF-CEM leukemia was more than 100 µM each time. Moreover, the TGI with MOLT-4 leukemia, with SF-268 CNS and in the assay on EKVX NSCLC was more than 100 µM in each case.
For the molecule `CC1(C)OC(C[C@]2(C#N)C[C@H](CCl)OC(C)(C)O2)C[C@@H](C[C@]2(C#N)C[C@H](CCl)OC(C)(C)O2)O1` (some centres undefined), the TGI in the assay on CAKI-1 renal, with HCT-15 colon, in the assay with HOP-18 NSCLC, in the assay on IGROV1 ovarian, in the assay with SK-MEL-5 melanoma and in the assay with UACC-62 melanoma was more than 100 µM throughout. Moreover, the TGI in the assay on A549 NSCLC, in the assay with HL-60(TB) leukemia, in the assay with HOP-92 NSCLC, in the assay on U251 CNS, with SN12C renal and in the assay on HCC-2998 colon was more than 100 µM in each case. Moreover, the TGI with UACC-257 melanoma, in the assay on CCRF-CEM leukemia, in the assay with MOLT-4 leukemia, in the assay on SF-268 CNS and in the assay on EKVX NSCLC was more than 100 µM throughout.
Turning to `CC1(C)CC(=O)C2=C(C1)S/C(=C1/SC3=C(S1)C(=O)CC(C)(C)C3)S2`, the TGI with HCT-15 colon, in the assay with HOP-18 NSCLC, in the assay with IGROV1 ovarian, in the assay on UACC-62 melanoma, with A549 NSCLC and with HL-60(TB) leukemia was more than 251 µM throughout. Besides, the TGI in the assay on HOP-92 NSCLC, in the assay with U251 CNS, with SN12C renal, with HCC-2998 colon, in the assay with UACC-257 melanoma and in the assay with CCRF-CEM leukemia was more than 251 µM throughout. Besides, the TGI with MOLT-4 leukemia, with SF-268 CNS and in the assay on EKVX NSCLC was more than 251 µM throughout.
For the molecule `Cc1cccc2c(N)c3cccc(C(=O)NCC[N+](C)(C)Cc4sccc4[N+](=O)[O-])c3nc12`, the TGI in the assay on CAKI-1 renal was 43.9 µM; with HCT-15 colon, more than 100 µM; in the assay on PC-3 prostate, 77 µM; with IGROV1 ovarian, more than 100 µM; in the assay on SK-MEL-5 melanoma, more than 100 µM; in the assay with UACC-62 melanoma, 36 µM. Moreover, the TGI is 16.9 µM in the assay with A549 NSCLC; more than 100 µM in the assay with HL-60(TB) leukemia; more than 100 µM with HOP-92 NSCLC; more than 100 µM with U251 CNS; more than 100 µM in the assay with SN12C renal; 20.8 µM in the assay on HCC-2998 colon. Besides, the TGI in the assay on UACC-257 melanoma is more than 100 µM; with CCRF-CEM leukemia, more than 100 µM; in the assay on NCI/ADR-RES ovarian it was more than 100 µM; in the assay with MDA-MB-231 breast, 67.7 µM; with MOLT-4 leukemia, more than 100 µM; in the assay on SF-268 CNS it was more than 100 µM. Besides, the TGI in the assay with EKVX NSCLC is more than 100 µM.
With `COc1cc(=O)n2c3ccccc3n(C)c2c1C#N`, the TGI in the assay on CAKI-1 renal, with HCT-15 colon, in the assay with PC-3 prostate, in the assay on IGROV1 ovarian, in the assay with SK-MEL-5 melanoma and in the assay on UACC-62 melanoma was more than 100 µM each time. Moreover, the TGI in the assay on A549 NSCLC, in the assay with HL-60(TB) leukemia, in the assay on HOP-92 NSCLC, with U251 CNS, in the assay with SN12C renal and with HCC-2998 colon was more than 100 µM each time. Also, the TGI in the assay on UACC-257 melanoma, with CCRF-CEM leukemia, with NCI/ADR-RES ovarian, with MDA-MB-231 breast, in the assay on MOLT-4 leukemia and with SF-268 CNS was more than 100 µM in each case. The TGI with EKVX NSCLC was more than 100 µM.
Consider `CCC1(CCSC(=N)N)C(=O)NC(=O)NC1=O`, for which the TGI in the assay with CAKI-1 renal, in the assay on HCT-15 colon, with PC-3 prostate, in the assay on IGROV1 ovarian, with SK-MEL-5 melanoma and in the assay on UACC-62 melanoma was more than 100 µM throughout. The TGI with A549 NSCLC, with HL-60(TB) leukemia, in the assay with HOP-92 NSCLC, in the assay with U251 CNS, in the assay on SN12C renal and in the assay on HCC-2998 colon was more than 100 µM in each case. Also, the TGI in the assay on UACC-257 melanoma, with CCRF-CEM leukemia, in the assay with NCI/ADR-RES ovarian, with MDA-MB-231 breast, with MOLT-4 leukemia and in the assay on SF-268 CNS was more than 100 µM in each case. Also, the TGI in the assay on EKVX NSCLC is more than 100 µM.
